pIC50: −log10 of the molar value. Where two headings read alike, the source gives them in different places.
Experiments:
[1] = target: T1, αvβ3 receptor (αvβ3 from human A375 cells) (Homo sapiens, UniProt P05106+P06756); experiment: αvβ3 binding test (echistatin displacement, WGA SPA beads)
T1 construct: αvβ3 from human A375 cells was purified analogously to a procedure which was described by Wong et al; endogenous in cells; host or cells: human A375 cells; the receptor was purified from the cells and used detergent-solubilised (n-octyl-glucopyranoside)
Experimental: αvβ3 from human A375 cells was purified analogously to a procedure which was described by Wong et al. (Molecular Pharmacology, 50, 529–537 (1996)). In each case, 10 μl of αvβ3 (5 ng) in TBS pH 7.6, 2 mM CaCl2, 1 mM MgCl2, 1% n-octyl-glucopyranoside (Sigma); 10 μl of test substance in TBS pH 7.6, 0.1% DMSO and 45 μl of TBS pH 7.6, 2 mM CaCl2, 1 mM MgCl2, 1 mM MnCl2 were incubated at room temperature for 1 h. In each case, 25 μl of WGA SPA beads (Amersham, 4 mg/ml) and 10 μl of echistatin ([…], Amersham, chloramine-T labelled) were then added. After 16 hours at room temperature, the samples were measured in a scintillation measuring apparatus (Wallac 1450).

[2] = tested on: MDA-MB 231; experiment: Growth inhibition test (MTT), cytotoxic action on tumour cell lines; type: cell-based; details: Homo sapiens, MDA-MB-231, 144 h, read-out: IC50 values of the cytotoxic action on tumour cell lines, MDA-MB 231
Experimental: (§1) The human large intestine cell lines SW 480 and HT29 (ATCC No. CCL 228 and HTB38), the human breast cell lines MDA-MB 231, MCF-7 and BT20 (ATCC No. HTB-, 26, 22 and 23) and the mouse melanoma cell line B16F 10 (CRL 6475) were grown to confluence in Roux dishes in RPMI 1640 medium with addition of 10% FCS. They were then trypsinized and taken up in RPMI plus 10% FCS to a cell count of 50,000 cells or, for B16F10, 20,000 cells per ml. 100 μl of cell suspension/well were added to a 96 microwell plate and incubated at 37° C. for 1 day in a CO2 incubator. A further 100 μl of RPMI medium and 1 μl of DMSO were then added with the test substances. The growth was checked after day 6. For this, 25 μl of MTT solution (3-(4,5-dimethylthiazol-2-yl)-2,5-diphenyltetrazolium bromide) was added to each well at a starting concentration of 5 mg/ml of H2O. The plate was incubated at 37° C. for 5 hours in a CO2 incubator. The medium was then aspirated and 100 μl of i-propanol/well were added. After shaking with 100 μl of H2O for 30 min, the extinction was measured at 595-nm using a Multiplate Reader (BIO-RAD 3550-UV).
(§2) The cytostatic action is indicated in Table 2 as an IC50 value, in each case for the individual cell lines.

[3] = tested on: MCF7; experiment: as above; type: cell-based; details: Homo sapiens, MCF7, 144 h, read-out: IC50 values of the cytotoxic action on tumour cell lines, MCF7
Experimental: as §1, §2

[4] = tested on: HT 29; experiment: as above; type: cell-based; details: Homo sapiens, HT-29, 144 h, read-out: IC50 values of the cytotoxic action on tumour cell lines, HT 29
Experimental: as §1, §2

[5] = tested on: BT20; experiment: as above; type: cell-based; details: Homo sapiens, BT-20, 144 h, read-out: IC50 values of the cytotoxic action on tumour cell lines, BT20
Experimental: as §1, §2

[6] = tested on: SW480; experiment: as above; type: cell-based; details: Homo sapiens, SW480, 144 h, read-out: IC50 values of the cytotoxic action on tumour cell lines, SW480
Experimental: as §1, §2

[7] = tested on: B16F10; experiment: as above; type: cell-based; details: Mus musculus, B16-F10, 144 h, read-out: IC50 values of the cytotoxic action on tumour cell lines, B16F10
Experimental: as §1, §2

[8] = αvβ3 purified from human A375 cells, labelled echistatin, read-out: IC50 values of the binding to the αvβ3 receptor

T1 sequence (P06756 31-889 limits assumed): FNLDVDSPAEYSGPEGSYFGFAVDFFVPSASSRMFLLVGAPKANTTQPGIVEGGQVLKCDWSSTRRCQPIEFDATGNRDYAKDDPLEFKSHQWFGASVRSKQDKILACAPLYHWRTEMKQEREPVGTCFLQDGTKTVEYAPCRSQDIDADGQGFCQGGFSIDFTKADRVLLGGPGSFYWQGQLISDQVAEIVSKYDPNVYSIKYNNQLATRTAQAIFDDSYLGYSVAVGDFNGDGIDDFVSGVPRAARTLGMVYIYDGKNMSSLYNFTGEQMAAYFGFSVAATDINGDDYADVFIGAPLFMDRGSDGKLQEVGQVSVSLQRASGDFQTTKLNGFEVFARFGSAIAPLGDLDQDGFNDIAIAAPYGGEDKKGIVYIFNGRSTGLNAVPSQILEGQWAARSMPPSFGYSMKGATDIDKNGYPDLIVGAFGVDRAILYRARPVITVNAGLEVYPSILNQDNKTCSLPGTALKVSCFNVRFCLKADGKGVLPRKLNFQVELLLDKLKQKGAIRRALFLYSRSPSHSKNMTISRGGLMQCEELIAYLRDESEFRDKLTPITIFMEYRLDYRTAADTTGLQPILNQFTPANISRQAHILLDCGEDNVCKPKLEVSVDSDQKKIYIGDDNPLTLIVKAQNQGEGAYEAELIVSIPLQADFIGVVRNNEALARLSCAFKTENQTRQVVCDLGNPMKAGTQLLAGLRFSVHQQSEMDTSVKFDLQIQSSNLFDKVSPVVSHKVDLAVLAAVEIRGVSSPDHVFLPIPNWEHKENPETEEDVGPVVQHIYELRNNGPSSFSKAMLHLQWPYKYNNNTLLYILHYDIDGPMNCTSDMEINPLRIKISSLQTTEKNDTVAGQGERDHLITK
T1 sequence (P06756 891-1048 partner limits assumed): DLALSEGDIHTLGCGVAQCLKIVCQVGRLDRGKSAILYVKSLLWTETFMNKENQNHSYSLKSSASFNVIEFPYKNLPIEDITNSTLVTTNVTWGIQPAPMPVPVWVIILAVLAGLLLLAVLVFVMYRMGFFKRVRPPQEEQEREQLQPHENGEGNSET
T1 sequence (P05106 27-788): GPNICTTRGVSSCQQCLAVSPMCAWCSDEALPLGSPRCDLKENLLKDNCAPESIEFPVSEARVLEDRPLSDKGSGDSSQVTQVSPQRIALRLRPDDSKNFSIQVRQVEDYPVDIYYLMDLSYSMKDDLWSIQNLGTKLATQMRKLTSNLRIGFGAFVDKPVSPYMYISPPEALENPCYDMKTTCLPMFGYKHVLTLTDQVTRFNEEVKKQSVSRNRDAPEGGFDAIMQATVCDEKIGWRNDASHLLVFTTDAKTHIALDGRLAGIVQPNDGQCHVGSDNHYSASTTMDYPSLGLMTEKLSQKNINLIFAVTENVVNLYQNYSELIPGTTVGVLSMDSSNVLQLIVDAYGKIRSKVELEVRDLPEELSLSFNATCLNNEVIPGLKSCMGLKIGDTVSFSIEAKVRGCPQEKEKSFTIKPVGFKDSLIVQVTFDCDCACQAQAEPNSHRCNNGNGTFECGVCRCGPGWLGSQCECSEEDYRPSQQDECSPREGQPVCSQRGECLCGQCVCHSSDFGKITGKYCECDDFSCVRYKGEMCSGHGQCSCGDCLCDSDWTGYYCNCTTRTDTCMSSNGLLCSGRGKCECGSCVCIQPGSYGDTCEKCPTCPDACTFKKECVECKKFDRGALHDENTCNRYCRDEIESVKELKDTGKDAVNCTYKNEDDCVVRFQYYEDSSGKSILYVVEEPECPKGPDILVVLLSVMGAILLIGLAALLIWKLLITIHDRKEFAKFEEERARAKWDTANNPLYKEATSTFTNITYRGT

SMILES | pIC50 [1, 8] | pIC50 [2] | pIC50 [3] | pIC50 [4] | pIC50 [5] | pIC50 [6] | pIC50 [7] | pIC50 [1]
CC[C@@]1(OC(=O)[C@@H](NC(=O)[C@H](CCCCNC(=O)CC(NC(=O)CNC(=O)c2cccc(NC(=N)N)c2)c2ccccc2)NC(=S)Nc2ccccc2)C(C)C)C(=O)OCc2c1cc1n(c2=O)Cc2cc3ccccc3nc2-1 (stereo partly drawn) [Example 1.1] | 6.06 | 7.00 | 7.05 | 6.92 | 6.82 | 6.70 | – | –
CC[C@@]1(OC(=O)[C@@H](NC(=O)CC[C@H](NC(=O)CC(NC(=O)CNC(=O)c2cccc(NC(=N)N)c2)c2ccccc2)C(=O)O)C(C)C)C(=O)OCc2c1cc1n(c2=O)Cc2cc3ccccc3nc2-1 (stereo partly drawn) [Example 1.2] | 6.17 | 7.70 | 7.22 | 6.30 | 7.00 | 6.22 | 5.40 | –
CC[C@@]1(OC(=O)[C@@H](NC(=O)[C@H](CCCCN)NC(=S)Nc2cccc(C(=O)NCC(=O)NC(CC(=O)O)c3ccccc3)c2)C(C)C)C(=O)OCc2c1cc1n(c2=O)Cc2cc3ccccc3nc2-1 (stereo partly drawn) [Example 2.1] | 5.84 | 7.22 | 7.15 | 7.05 | 7.00 | 6.82 | 6.40 | –
CC[C@@]1(OC(=O)[C@@H](NC(=O)[C@H](CCC(=O)O)NC(=S)Nc2cccc(C(=O)NCC(=O)NC(CC(=O)O)c3ccccc3)c2)C(C)C)C(=O)OCc2c1cc1n(c2=O)Cc2cc3ccccc3nc2-1 (stereo partly drawn) [Example 2.2] | 5.82 | 6.52 | 6.52 | 6.52 | 6.40 | 6.30 | – | –
CC[C@@]1(OC(=O)[C@@H](NC(=O)[C@H](Cc2c[nH]cn2)NC(=S)Nc2cccc(S(=O)(=O)Nc3cccc(C(CC(=O)O)NS(=O)(=O)c4ccccc4)c3)c2)C(C)C)C(=O)OCc2c1cc1n(c2=O)Cc2cc3ccccc3nc2-1 (stereo partly drawn) [Example 2.3] | – | 7.70 | 7.22 | 7.15 | 7.10 | 6.92 | – | 6.16
CC[C@@]1(OC(=O)C(NC(=O)C(Cc2cnc[nH]2)NC(=S)Nc2cccc(-c3ccc(C[C@H](NS(=O)(=O)CC45CCC(CC4=O)C5(C)C)C(=O)O)cc3)c2)C(C)C)C(=O)OCc2c1cc1n(c2=O)Cc2cc3ccccc3nc2-1 (stereo partly drawn) [Example 2.4] | 6.96 | 6.40 | 6.10 | 6.52 | 5.82 | 6.40 | 6.30 | –
CC[C@@]1(OC(=O)C(NC(=O)C(CCCCN)NC(=S)Nc2cccc(-c3ccc(C[C@H](NS(=O)(=O)CC45CCC(CC4=O)C5(C)C)C(=O)O)cc3)c2)C(C)C)C(=O)OCc2c1cc1n(c2=O)Cc2cc3ccccc3nc2-1 (stereo partly drawn) [Example 2.5] | 6.72 | 6.52 | 6.52 | 6.52 | 6.40 | 6.70 | 6.40 | –
CC[C@@]1(OC(=O)[C@@H](NC(=O)[C@H](CCCCNC(=O)OCC2c3ccccc3-c3ccccc32)NC(=O)Nc2cccc(-c3ccc(C[C@H](NS(=O)(=O)CC45CCC(CC4=O)C5(C)C)C(=O)O)cc3)c2)C(C)C)C(=O)OCc2c1cc1n(c2=O)Cc2cc3ccccc3nc2-1 (stereo partly drawn) [Example 2.6] | – | 5.52 | 5.30 | 5.52 | 5.05 | 5.52 | 5.00 | 6.62
CC[C@@]1(OC(=O)[C@@H](NC(=O)[C@H](Cc2cnc[nH]2)NC(=O)Nc2cccc(-c3ccc(C[C@H](NS(=O)(=O)CC45CCC(CC4=O)C5(C)C)C(=O)O)cc3)c2)C(C)C)C(=O)OCc2c1cc1n(c2=O)Cc2cc3ccccc3nc2-1 (stereo partly drawn) [Example 2.7] | – | 6.05 | 6.10 | 6.22 | 5.30 | 6.05 | 5.52 | 7.07
